In patent US20050124557A1, “Use of benzothiazepines having activity as inhibitors of ileal bile acid transport for reducing cholesterololemia” (priority 2002, published 2005):
Structures can show the parent of a compound that is named as a salt.

Assays:
[1] = system: LDL receptor/ApoE deficient mice; assay: Combination study (experiment II): plasma lipids/lipoproteins after Compound (I), atorvastatin calcium salt or both; assay type: in vivo; conditions: for HDL, % Change compared to control group / LDL, % Change compared to control group / LP-remnants, % Change compared to control group: FPLC
Method: (§1) Compound (I) was dissolved in polyethanylglycol (PEG):ethanol:solutol:Water (4:1:0.5:8.5) vehicle and administered by gavage once a day in the afternoon.
(§2) Altogether 54 female LDL receptor/ApoE deficient mice were used (5 to 6 weeks old weighing 25 to 30 g at the start of the study; obtained from B&M/AS, Denmark). They were kept under standardized conditions with free access to water and chow. The light-cycle hours were between 6:00 a.m. and 6:00 p.m. In experiment I, the dose response study, the mice were treated with Compound (I) by gavage once a day in the afternoon the first three days and in the morning the last day. The control group on regular R^3-chow received the vehicle by gavage. […] The control group received R^3 chow and vehicle.
(§3) Mice were starved 3 hours before they were scarified at 10 a.m. Animals were anaesthetized with isofluran, bled by cardiac puncture, and thereafter killed by cervical dislocation. Blood was collected into EDTA containing tubes, plasma was separated by centrifugation and stored at −70° C.
(§4) Cholesterol in plasma and in FPLC on line measurement was performed with a commercial cholesterol kit from Roche Diagnostics, GmbH, Germany, Cholesterol, CHOD-PAP 1489437.
(§5) Triglycerides in plasma was measured by using a commercial reagent kit, from Roche Diagnostics, GmbH, Germany, Triglycerides/GB, 450032.
(§6) The cholesterol distribution profiles were measured by using a size exclusion high performance liquid chromatography system, SMART, with column Superose 6 PC 3.2/30, (Amersham Pharmacia Biotec, Uppsala, Sweden). The chromatographic system was linked to an air segmented continuous flow system for online post-derivatization analysis of total cholesterol by using enzymatic colorimetric reagents. The SMART-system was connected to a sample injector, (Gina 50, Gynkotek HPLC, Germering, GmbH). Elution buffer consisted of 0.01M Tris, 0.03 M NaCl, pH 7.40, flow rate […]. The on line flow system was equipped with a peristaltic pump, flow rate 0.7 ml/min, and an incubation coil for 8 minutes at 37° C. The absorbance was measured at […] with a UV/VIS detector, (Jasco UV-970, Jasco International Co, Ltd, Japan). Data were integrated with a Chromeleon chromatography data system (Gynkotek HPLC, Germering GmbH). The distribution of lipoproteins was continuously measured as total cholesterol by using enzymatic calorimetric reagent, reconstituted in water, double volume compared to manufacturer instructions. The commercial kits were from Roche Diagnostics, GmbH, Germany, Cholesterol, CHOD-PAP 1489437. The separation was performed within 60 minutes on a 10 μl sample. The integrated area of the fractions was expressed in molar concentration. The various peaks in the profiles are designated LP-remnants, LDL, and HDL for simplicity, even though it is clear that the separation is determined primarily by the size of the lipoproteins.

[2] = system: LDL receptor/ApoE deficient mice; assay: Dose response study (experiment I): plasma lipids/lipoproteins after Compound (I) by gavage; assay type: in vivo; conditions: for Chol (plasma total cholesterol), % Change compared to control group / LP-remnants + LDL/HDL, % Change compared to control group / TG (plasma triglycerides), % Change compared to control group / HDL, % Change compared to control group / LDL, % Change compared to control group / LP-remnants, % Change compared to control group: three days, gavage
Method: as §1, §2, §3, §4, §5, §6
With the aim to determine the effect of the BAT inhibitor, Compound (I), on the level of plasma lipids in LDL receptor/ApoE deficient mice, groups of animals received vehicle or Compound (I) at increasing doses (0.62, 2.5, 10 and 40 μmol/kg/day) for 3.5 days. […] To analyze plasma lipoproteins in detail, plasma lipoprotein patterns were generated after separation of plasma by FPLC.

[3] = FPLC analysis of plasma, 7 days
[4] = one week, Compound (I) 10 μmol/kg/day by gavage, atorvastatin calcium salt 0.05% in chow
[5] = FPLC, dose not stated in the sentence (Table 1: 40 μmol/kg/day)

CC(C)c1c(C(=O)Nc2ccccc2)c(-c2ccccc2)c(-c2ccc(F)cc2)n1CC[C@@H](O)C[C@@H](O)CC(=O)O [Atorvastatin calcium salt, reference compound]
reduction of LDL cholesterol [1, 3]: 44%
LP-remnants + LDL/HDL, % Change compared to control group [1, 4]: 2%
HDL, % Change compared to control group [1, 4]: −22%
LDL, % Change compared to control group [1, 4]: −43%
LP-remnants, % Change compared to control group [1, 4]: −2%

CCCC[C@]1(CC)CS(=O)(=O)c2cc(O[C@@H]3O[C@H](C(=O)O)[C@@H](O)[C@H](O)[C@H]3O)ccc2[C@@H](c2ccccc2)N1 [Compound (I), (3R,5R)-3-butyl-3-ethyl-1,1-dioxido-5-phenyl-2,3,4,5-tetrahydro-1,4-benzothiazepin-8-yl β-D-glucopyranosiduronic acid]
increase in HDL cholesterol ([1]; 7 days): 22%
effect on the plasma triglyceride level (in words) ([1]; 7 days, Compound (I) 10 μmol/kg/day alone): no effect
reduction of total plasma cholesterol ([1]; 7 days, atorvastatin calcium salt 0.05% in diet (approximately 80-100 mg/kg/day), Compound (I) 10 μmol/kg/day): 40%
reduction of LDL cholesterol [1, 3]: 30%
reduction of LP-remnants cholesterol [1, 3]: 62%
Chol (plasma total cholesterol), % Change compared to control group [1, 4]: −42%
LP-remnants + LDL/HDL, % Change compared to control group [1, 4]: −54%
TG (plasma triglycerides), % Change compared to control group [1, 4]: 7%
HDL, % Change compared to control group [1, 4]: 22%
LDL, % Change compared to control group [1, 4]: −29%
LP-remnants, % Change compared to control group [1, 4]: −62%
Chol (plasma total cholesterol), % Change compared to control group ([2]; 0.625 μmol/kg/day): −9%
LP-remnants + LDL/HDL, % Change compared to control group ([2]; 0.625 μmol/kg/day): −30%
TG (plasma triglycerides), % Change compared to control group ([2]; 0.625 μmol/kg/day): 13%
HDL, % Change compared to control group ([2]; 0.625 μmol/kg/day, FPLC): 29%
LDL, % Change compared to control group ([2]; 0.625 μmol/kg/day, FPLC): 8%
LP-remnants, % Change compared to control group ([2]; 0.625 μmol/kg/day, FPLC): −27%
Chol (plasma total cholesterol), % Change compared to control group ([2]; 10 μmol/kg/day): −35%
LP-remnants + LDL/HDL, % Change compared to control group ([2]; 10 μmol/kg/day): −55%
TG (plasma triglycerides), % Change compared to control group ([2]; 10 μmol/kg/day): 23%
HDL, % Change compared to control group ([2]; 10 μmol/kg/day, FPLC): 36%
LDL, % Change compared to control group ([2]; 10 μmol/kg/day, FPLC): −20%
LP-remnants, % Change compared to control group ([2]; 10 μmol/kg/day, FPLC): −54%
Chol (plasma total cholesterol), % Change compared to control group ([2]; 40 μmol/kg/day): −40%
LP-remnants + LDL/HDL, % Change compared to control group ([2]; 40 μmol/kg/day): −62%
TG (plasma triglycerides), % Change compared to control group ([2]; 40 μmol/kg/day): 8%
HDL, % Change compared to control group ([2]; 40 μmol/kg/day, FPLC): 45%
LDL, % Change compared to control group ([2]; 40 μmol/kg/day, FPLC): −23%
LP-remnants, % Change compared to control group ([2]; 40 μmol/kg/day, FPLC): −63%
Plasma triglycerides (in words) ([2]; 0.62-40 μmol/kg/day, 3.5 days): not significantly altered
HDL cholesterol (in words) ([2]; FPLC): no reduction
reduction in plasma cholesterol in LDL fraction [2, 5]: 23%
reduction in plasma cholesterol in LP-remnants fraction [2, 5]: 63%
reduction of total plasma cholesterol ([2]; highest dose (40 μmol/kg/day), 3.5 days): 40%
